{"source": "patent US11607406B2", "about": "“Therapeutical methods, formulations and nutraceutical formulations” (priority 2014, dated 2023)", "key": {"volunteer [1]": {"system": "volunteer", "assay": "Pre ejaculation time of volunteers after taking the formulation or drug orally", "type": "in vivo, human", "details": "for average pre ejaculation time: 5 minutes without the drug"}, "volunteer [2]": {"system": "volunteer", "assay": "Side effects reported by the volunteers after taking the formulation or drug orally", "type": "in vivo, human"}, "[3]": {"details": "capsule, 60 mg only, after 3 hours, repeated experiments"}}}
{"smiles": "COc1cccc(C2(O)CCCCC2CN(C)C)c1", "note": "(centres unmarked) [Tramadol, 2-[(dimethylamino)methyl]-1-(3-methoxyphenyl)-cyclohexanol]", "values": [{"measurement": "average pre ejaculation time", "setting": "volunteer [1]; 20 mg only", "result": 10, "unit": "min"}]}
{"smiles": "COc1cc(/C=C/C(=O)CC(=O)/C=C/c2ccc(O)c(OC)c2)ccc1O", "note": "[curcumin, diferuloylmethane]", "values": [{"measurement": "changes in pre ejaculation time", "setting": "volunteer [1]; capsule with curcumin 500 mg, after 1 hours, 3 hours and 12 hours", "result": "no significant changes"}]}
{"smiles": "CN(C)[C@@H](CCOc1cccc2ccccc12)c1ccccc1", "note": "[dapoxetine]", "values": [{"measurement": "average pre ejaculation time", "setting": "volunteer [1]; [3]", "result": 20, "unit": "min"}, {"measurement": "side effects", "setting": "volunteer [2]; capsule, 60 mg only", "result": "significant side effects (stomach irritation, nausea and headache)"}]}
{"smiles": "CNCC[C@H](Oc1cccc2ccccc12)c1cccs1", "note": "[duloxetine]", "values": [{"measurement": "increase in pre-ejaculation time", "setting": "volunteer [1]; [3]", "result": "no significant increase"}, {"measurement": "side effects", "setting": "volunteer [2]; capsule, 60 mg only", "result": "significant side effects (stomach irritation, nausea and headache)"}]}
{"smiles": "CN(C)CCC[C@@]1(c2ccc(F)cc2)OCc2cc(C#N)ccc21", "note": "[escitalopram]", "values": [{"measurement": "changes in pre ejaculation time", "setting": "volunteer [1]; 20 mg only, once orally, after 3 hours", "result": "no significant changes"}, {"measurement": "side effects", "setting": "volunteer [2]; 20 mg only, once orally", "result": "significant side effects"}]}
{"smiles": "CC(C)=CCC[C@]1(C)[C@@H](CC=C(C)C)C[C@@]2(CC=C(C)C)C(=O)[C@]1(C(=O)C(C)C)C(=O)C(CC=C(C)C)=C2O", "note": "[hyperforin]", "values": [{"measurement": "average pre ejaculation time (change)", "setting": "volunteer [1]; 1 capsule, 10 mg only, after 2 hours", "result": "not changed"}, {"measurement": "average pre ejaculation time", "setting": "volunteer [1]; 1 capsule, 30 mg only, after 2 hours, repeated tests", "result": "around 8 minutes"}, {"measurement": "side effects", "setting": "volunteer [2]; 1 capsule, 30 mg only (hyperforin)", "result": "headache"}]}
{"smiles": "Fc1ccc([C@@H]2CCNC[C@H]2COc2ccc3c(c2)OCO3)cc1", "note": "[paroxetine]", "values": [{"measurement": "average pre ejaculation time", "setting": "volunteer [1]; capsule, 30 mg only, after 3 hours, repeated experiments", "result": 8, "unit": "min"}, {"measurement": "side effects", "setting": "volunteer [2]; capsule, 30 mg only (paroxetine)", "result": "significant side effects (stomach irritation, nausea and headache)"}]}
{"smiles": "COc1cc2c(cc1OC)[C@@H]1Cc3ccc(OC)c(OC)c3CN1CC2", "note": "[rotundine, L-tetrahydropalmatine]", "values": [{"measurement": "ejaculation latency", "setting": "volunteer [1]; alone, taken orally 50~200 mg 1 hr before sex", "result": "increase ejaculation latency"}]}
{"smiles": "CN[C@H]1CC[C@@H](c2ccc(Cl)c(Cl)c2)c2ccccc21", "note": "[sertraline]", "values": [{"measurement": "average pre ejaculation time", "setting": "volunteer [1]; 60 mg once daily for 10 days continuously", "result": 10, "unit": "min"}, {"measurement": "increase in pre-ejaculation time", "setting": "volunteer [1]; [3]", "result": "no significant increase"}, {"measurement": "side effects", "setting": "volunteer [2]; capsule, 60 mg only", "result": "significant side effects (stomach irritation, nausea and headache)"}]}
